In publication PMC9877316, “Identification of a novel P2X7 antagonist using structure-based virtual screening” (Frontiers in Pharmacology, 2023):

How the values were obtained:
rat P2X7 = target: T1, rat P2X7 (Rattus norvegicus, UniProt Q64663); assay: ATP/BzATP-induced YoPro-1 dye uptake assay, rat P2X7; assay type: cell-based
T1 construct: expressed in transfected cells; host or cells: HEK-293 cells stably expressing rat P2X7-GFP (patch clamp)
T1 sequence (Q64663 1-595): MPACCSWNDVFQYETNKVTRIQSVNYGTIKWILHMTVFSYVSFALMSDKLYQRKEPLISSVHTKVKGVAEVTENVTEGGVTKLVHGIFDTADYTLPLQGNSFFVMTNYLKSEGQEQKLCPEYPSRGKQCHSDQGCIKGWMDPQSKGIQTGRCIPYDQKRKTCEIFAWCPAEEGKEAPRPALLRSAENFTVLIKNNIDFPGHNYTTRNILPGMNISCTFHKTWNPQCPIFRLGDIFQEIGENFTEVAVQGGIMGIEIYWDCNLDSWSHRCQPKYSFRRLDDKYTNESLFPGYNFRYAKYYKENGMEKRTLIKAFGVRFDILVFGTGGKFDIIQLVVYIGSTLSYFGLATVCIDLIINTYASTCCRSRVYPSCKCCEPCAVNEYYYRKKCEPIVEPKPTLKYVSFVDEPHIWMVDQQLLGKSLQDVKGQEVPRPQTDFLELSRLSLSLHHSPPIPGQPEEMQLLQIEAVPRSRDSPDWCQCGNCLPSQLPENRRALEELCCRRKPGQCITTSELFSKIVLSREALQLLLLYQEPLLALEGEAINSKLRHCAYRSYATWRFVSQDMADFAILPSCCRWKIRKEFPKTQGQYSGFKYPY
Procedure: 1321N1 astrocytoma cells and HEK-293 cells were cultured (at 37°C, 5% CO2) in Dulbecco’s modified Eagle’s medium (DMEM/F-12 with Glutamax) supplemented with 10% foetal bovine serum (FBS) and 200 unit/ml of penicillin and streptomycin antibiotics (Fisher Scientific). For stable cell line generation, cells were transfected using FuGene HD Transfection Reagent (Promega) according to the manufacturer’s protocol with plasmids encoding either human P2X4 with a C-terminal (His)10 tag ([Young et al., 2008]), human P2X7 with a C-terminal EYMPME tag (kindly provided by R.A. North) or rat P2X7 C-terminally tagged with a GFP-(His)8 tag, generated by PCR amplification of the coding sequence for rat P2X7 from a pcDNA-based expression vector ([Young et al., 2007]), adding XhoI and EcoRI sites at the 5′- and 3′- ends respectively, followed by restriction digestion and ligation into a zebrafish P2X4-GFP expression vector based on pEGFP-C1 (kindly provided by Eric Gouaux; [Kawate and Gouaux, 2006]) to replace the zebrafish P2X4 coding region with rP2X7. Transfected clones were grown in DMEM/F-12 with Glutamax medium supplemented with G-418 (Geneticin®, Fisher Scientific), 600 μg/ml and 150 μg/ml during selection and maintenance respectively. […] HEK-293 cells stably expressing human P2X7 ([Adinolfi et al., 2010]) were a kind gift from Elena Adinolfi.
Cells were plated as for the calcium influx assay (Section 2.4). Culture medium was replaced with low divalent cation containing extracellular solution (ECS-LD; 147 mM NaCl, 10 mM HEPES, 13 mM Glucose, .2 mM CaCl2, 2 mM KCl. pH = 7.4 in MilliQ water) and 5 μM Yopro-1. […] The baseline was measured with a BMG Clariostar instrument for 5–10 cycles, followed by addition of ATP (or BzATP) and recording for at least 30 further cycles (approx. 1 min per data point). The collected responses were normalized to the first data-point recorded after ATP addition. The initial gradient of the dye uptake curve was used to calculate the response to ATP.
In order to confirm GP-25 as a competitive (orthosteric) antagonist, BzATP concentration-response curves (ranging between 300 μM and .03 µM) were constructed for rat P2X7-GFP in the YoPro-1 uptake assay in the presence of increasing concentrations of GP-25 (Figure 3A).

HEK-293 = assay: CellTiter-Blue cell viability assay; assay type: cell-based, human; conditions: 30 µM compound; 24 h incubation; HEK-293 wild-type
Procedure: To assess hit compound toxicity, CellTiter-Blue Cell Viability Assay (Promega, Southampton, United Kingdom) was used as recommended by the manufacturer on not transfected HEK-293. Cells were seeded in 96-well plates (100 μL at a concentration of 30–35,000 cells/ml) in culture media and a day later media was replaced with 100 µL fresh media containing 30 µM of tested compounds (10 µM of A740003). After 24 h incubation at 37 °C, 5% CO2, 20 µL of CellTiter Blue reagent was added to each well and incubated for 3 h at 37°C. Fluorescence was then measured with a BMG Clariostar using excitation/emission wavelengths of 560/590 nm. Data were normalized to vehicle control-treated cells (.1% DMSO).

COC(=O)C1=C(C)NC2=C(C(=O)c3ccccc32)C1c1cc(Br)ccc1OCC(=O)O (centres unmarked) [Compound 9, (4-bromo-2-(3-(methoxycarbonyl)-2-methyl-5-oxo-4,5-dihydro-1H-indeno(1,2-b)pyridine-4-yl)phenoxy)acetic acid]
Schild plot slope (rat P2X7; BzATP concentration-response curves, rat P2X7-GFP, increasing GP-25 up to 100 µM): 1.004 ± .2584
mode of antagonism (Schild analysis) (rat P2X7; BzATP, rat P2X7-GFP, YoPro-1): competitive (orthosteric) antagonism
IC50 (rat P2X7; YoPro-1 uptake, 300 µM ATP): 24.4 µM
inhibition at 30 µM (rat P2X7; approx. % inhibition at 30 μM compound, 300 µM ATP, YoPro-1 uptake, rat P2X7-GFP, read-out: % Inhibition at rP2X7): 47%
cell viability (HEK-293): did not significantly reduce cell viability
